US9751919B2, “Antimicrobial compositions comprising a hyaluronic acid binding peptide and a β-lactam antibiotic” (priority 2012, dated 2017)
“And” between values parts separate entries of the source, which are not always exact repeats. Equal values may be shown once. Read-outs that look alike come from different tables or passages of the source. Marks after values point to notes of the source that are not given here.

How the values were obtained:
Type in all cases: cell-based, Staphylococcus aureus
MSSA [1] = test: MIC (CLSI broth dilution), agent alone; conditions: for MIC: agent alone
In short: (§1)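 S. aureus isolates were tested by CLSI 2005 broth macrodilution in doubling dilutions of cation-adjusted Mueller-Hinton broth. Inoculum was about 5×10^5 CFU/ml, with 24 h incubation in ambient air. MIC was the lowest concentration inhibiting visible growth, with an MSSA and ATCC QC strains as controls.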

HA-MRSA = test: MIC (CLSI broth dilution), agent alone; conditions: for PEP35 (MIC): peptide alone
In short: as §1

CA-MRSA = test: MIC (CLSI broth dilution), agent alone
In short: as §1

MSSA [2] = test: Checkerboard assay (FIC index);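 note: each agent diluted from 0.03 to 4 times its MIC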
Experimental: (§2) Checkerboard assays were carried out as described by Bonapace et al.
(§3) Diagnostic Microbiology and Infectious Diseases 2002; 44:363-366. In brief, checkerboard assays were performed in 96 well microtitre trays using an 8-by-8 well configuration. […] 96-well custom designed microtitre plates contained 100 ul/well of cation adjusted Mueller-Hinton broth (eg. for Enterobacteriaceae) with or without lysed horse blood (2-5% V/V) [eg. for S. pneumoniae] and were inoculated to achieve a final concentration of approximately 5×10^5 CFU/ml and incubated in ambient air for 24 hours prior to reading. Colony counts were performed periodically to confirm inocula. Quality control was performed every two weeks using a variety of ATCC QC organisms including; S. pneumoniae 49619, S. aureus 29213, E. faecalis 29212, E. coli 25922 and P. aeruginosa 27853. […] All peptides were assessed for synergy with β-lactams and vancomycin. For all antimicrobials as well as the peptides, CLSI criteria were used.
(§4) The fractional inhibitory concentration index (FIC index) was used to interpret synergy, antagonism or additivity/indifference. FIC index=FIC of drug A+FIC of drug B where:
(§5) The FIC of drug A and drug B was calculated as follows, FIC drug A=MIC of drug A in combination/MIC of drug A alone and FIC of drug B=MIC of drug B in combination/MIC of drug B alone. Synergy was defined as FIC index ≦0.5, additivity/indifference defined as a FIC between 0.5 and 4 and antagonism defined as an FIC index >4.
(§6) The checkerboard assays were carried out as described by Eliopoulos and Moellering (Chapter 9) in Antibiotic in Laboratory Medicine, Lorian Ed. 1996 as well as Bonapace et al. Diagnostic Microbiology and Infectious Diseases 2002; 44:363-366 and Bonapace et al. Diagnostic Microbiology and Infectious Diseases 2000; 38:43-50. In brief, checkerboard assays were performed in 96 well microtitre trays using an 8-by-8 well configuration. […] 96-well custom designed microtitre plates contained 100 ul/well of cation adjusted Mueller-Hinton broth (eg. for Enterobacteriaceae) with or without lysed horse blood (2-5% V/V) [eg. for S. pneumoniae] and were inoculated to achieve a final concentration of approximately 5×10^5 CFU/ml and incubated in ambient air for 24 hours prior to reading. Colony counts were performed periodically to confirm inocula. Quality control was performed every two weeks using a variety of ATCC QC organisms including; S. pneumoniae 49619, S. aureus 29213, E. faecalis 29212, E. coli 25922 and P. aeruginosa 27853. For all antimicrobials as well as PEP35, CLSI criteria was used.
(§7) The FIC of drug A and drug B is calculated as follows, FIC drug A=MIC of drug A in combination/MIC of drug A alone and FIC of drug B=MIC of drug B in combination/MIC of drug B alone. Synergy is defined as FIC index ≦0.5, additivity/indifference FIC >0.5-4 and antagonism FIC index >4.
(§8) Antimicrobials used included PEP35, cefazolin, ceftriaxone, vancomycin, linezolid, tigecycline and daptomycin versus Gram-positive cocci and PEP35, gentamicin, levofloxacin, piperacillin/tazobactam, meropenem and colistin (Polymyxin E) versus Gram-negative bacilli. These agents were obtained as laboratory grade powders from their respective manufacturers. Stock solutions were prepared and dilutions made as described by the Clinical Laboratory Standards Institute (2005 CLSI).
(§9) Organisms included Gram-positive cocci (2 strains of each): Methicillin-susceptible Staphylococcus aureus (MSSA), community-associated (CA) and healthcare-associated (HA) methicillin-resistant Staphylococcus aureus (MRSA), vancomycin-intermediate Staphylococcus aureus (VISA), vancomycin-resistant Staphylococcus aureus (VRSA), methicillin-resistant Staphylococcus epidermidis (MRSE), Streptococcus pyogenes, Streptococcus agalactiae, Streptococcus pneumoniae, Enterococcus faecalis, Enterococcus faecium and vancomycin-resistant enterococcus (VRE). […]

VISA = test: Checkerboard assay (FIC index);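 note: each agent diluted from 0.03 to 4 times its MIC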
Experimental: as §2, §3, §4, §5, §6, §7, §8, §9

[3] = HA-MRSA 70798 (USA100/800), agent alone, in µg/mL
[4] = HA-MRSA 77090 (USA100/800), agent alone, in µg/mL
[5] = antibiotic combined with PEP35, MSSA 83424
[6] = antibiotic combined with PEP35, VISA 92
[7] = antibiotic combined with PEP35, VISA 95
[8] = CA-MRSA 69615 (USA400), agent alone, in µg/mL

## Cc1nnc(SCC2=C(C(=O)O)N3C(=O)[C@@H](NC(=O)Cn4cnnn4)[C@H]3SC2)s1 [Cefazolin]
MSSA [1]; MSSA 79333
  MIC: 1 and 0.5/0.5
MSSA [1]; MSSA 79333, listed as CEFAZOLIN
  MIC: 0.5/0.5
MSSA [1]; S. aureus control
  MIC: 0.5/0.5 ug/ml
MSSA [1]; Staphylococcus aureus, MSSA, S. aureus control, read-out: MIC
  MIC: 0.5 µg/mL
HA-MRSA; 50 HA-MRSA strains
  MICs alone, range: 2 to 512 µg/mL
  strains resistant to the antibiotic: 47 of the 50 strains
HA-MRSA; [3]
  MIC: 512
HA-MRSA; HA-MRSA 77090 (USA100/800), agent alone
  MIC: 128 and 256/256
HA-MRSA; [4]
  MIC: 128 and 64
HA-MRSA; HA-MRSA 77090 (USA100/800)^a row, antibiotic alone, in µg/mL
  MIC: 128
HA-MRSA; HA-MRSA 77090 (USA100/800)^b row, antibiotic alone, in µg/mL
  MIC: 128
HA-MRSA; HA-MRSA 77098 (USA100/800), agent alone
  MIC: 512/512
HA-MRSA; Staphylococcus aureus, MRSA / USA200, HA-MRSA (CMRSA4/USA200), antibiotic alone, read-out: Cefazolin (MIC)
  MIC: 256 µg/mL
HA-MRSA; Staphylococcus aureus, MRSA / USA500, HA-MRSA (CMRSA5/USA500), antibiotic alone, read-out: Cefazolin (MIC)
  MIC: 2 µg/mL
HA-MRSA; Staphylococcus aureus, MRSA / USA600, HA-MRSA (CMRSA1/USA600), antibiotic alone, read-out: Cefazolin (MIC)
  MIC: 128 µg/mL
HA-MRSA; Staphylococcus aureus, MRSA, HA-MRSA (CMRSA3/6), antibiotic alone, read-out: Cefazolin (MIC)
  MIC: 256 µg/mL
HA-MRSA; Staphylococcus aureus, MRSA, HA-MRSA (CMRSA6), antibiotic alone, read-out: Cefazolin (MIC)
  MIC: 256 µg/mL
HA-MRSA; Staphylococcus aureus, MRSA, HA-MRSA (CMRSA8), antibiotic alone, read-out: Cefazolin (MIC)
  MIC: 64 µg/mL
CA-MRSA; 50 CA-MRSA strains
  MICs alone, range: 2 to 256 µg/mL
  strains resistant to the antibiotic: 45 of the 50 strains
CA-MRSA; CA-MRSA 69615 (USA400), agent alone
  MIC: 64 and 64/64
CA-MRSA; CA-MRSA 69615 (USA400)^a row, antibiotic alone, in µg/mL
  MIC: 64
CA-MRSA; CA-MRSA 69615 (USA400)^b row, antibiotic alone, in µg/mL
  MIC: 64
CA-MRSA; CA-MRSA 70857 (USA400), agent alone
  MIC: 32 and 32/32
CA-MRSA; Staphylococcus aureus, MRSA / USA400
  MIC: 256 µg/mL
MSSA [2]; [5]
  Avg ΣFIC (range): 1.02 (0.75-1.25)
MSSA [2]; β-lactam combined with HybPEP35-1, MSSA 79333
  Avg ΣFIC (range): 0.57
MSSA [2]; β-lactam combined with PEP-52, MSSA 79333
  Avg ΣFIC (range): >1*
MSSA [2]; β-lactam combined with Scrambled PEP35, MSSA 79333
  Avg ΣFIC (range): 0.57
VISA; [6]
  Avg ΣFIC (range): 0.33 (0.18-0.53) and 0.45 (0.18-1.015)
VISA; [7]
  Avg ΣFIC (range): 0.49 (0.31-0.62) and 0.37 (0.18-0.56)
VISA; β-lactam combined with HybPEP35-1, VISA 96
  Avg ΣFIC (range): 0.30
VISA; β-lactam combined with PEP-52, VISA 96
  Avg ΣFIC (range): >1*
VISA; β-lactam combined with Scrambled PEP35, VISA 96
  Avg ΣFIC (range): 0.30

## CCCCCCCCCC(=O)N[C@@H](Cc1c[nH]c2ccccc12)C(=O)N[C@H](CC(N)=O)C(=O)N[C@@H](CC(=O)O)C(=O)N[C@@H]1C(=O)NCC(=O)N[C@@H](CCCN)C(=O)N[C@@H](CC(=O)O)C(=O)N[C@H](C)C(=O)N[C@@H](CC(=O)O)C(=O)NCC(=O)N[C@H](CO)C(=O)N[C@@H]([C@H](C)CC(=O)O)C(=O)N[C@@H](CC(=O)c2ccccc2N)C(=O)O[C@@H]1C [Daptomycin, daptomycin]
MSSA [2]; antibiotic combined with PEP35, MSSA 79333
  Avg ΣFIC (range): 1.19 (1.03-1.5)
MSSA [2]; [5]
  Avg ΣFIC (range): 1.58 (1.015-2.5)
VISA; [6]
  Avg ΣFIC (range): 1.54 (1.015-2.5)
VISA; [7]
  Avg ΣFIC (range): 1.23 (1.06-1.5)
VISA; antibiotic combined with PEP35, VISA 96
  Avg ΣFIC (range): 1.21 (1.03-1.5)

## piperacillin/tazobactam
MSSA [1]; MSSA 79333
  MIC: ≦1
HA-MRSA; [3]
  MIC: 4
HA-MRSA; [4]
  MIC: 16
CA-MRSA; [8]
  MIC: 32
CA-MRSA; CA-MRSA 70857 (USA400), agent alone, in µg/mL
  MIC: 32

## LKQKIKHVVKLKVVVKLRSQLVKRKQN (listed as Mus sp.) [PEP35]
MSSA [1]; MSSA 79333, in µg/mL
  MIC: 128 and 256
MSSA [1]; S. aureus (printed without strain; control row), peptide alone
  PEP35 (MIC): 1024 µg/mL
MSSA [1]; S. aureus control
  MIC: 512 µg/mL
HA-MRSA; [3]
  MIC: 512
HA-MRSA; [4]
  MIC: 256 and 512
HA-MRSA; HA-MRSA (CMRSA1/USA600)
  PEP35 (MIC): 256 µg/mL
HA-MRSA; HA-MRSA (CMRSA5/USA500)
  PEP35 (MIC): 512 µg/mL
HA-MRSA; HA-MRSA (CMRSA8)
  PEP35 (MIC): 1024 µg/mL
CA-MRSA; [8]
  MIC: 512
CA-MRSA; CA-MRSA (CMRSA7/USA400/MW2) isolates, one per table line, agent alone
  MIC: 512 µg/mL
